Where a SMILES comes first, the peptide text is derived from it. The star is where a group is joined. X1 = CC(C)C[C@@H](N)[C@H](O)C(=O)*

The text below walks through data of patent publication US4318847A, “Physiologically active tetrapeptides” (Zaidan Hojin Biseibutsu Kagaku Kenkyu Kai, priority 1979, dated 1982).

One test has as its target T1, aminopeptidase A (AP-A) (Homo sapiens, UniProt Q07075).
T1 construct: an AP-A solution which was obtained by ammonium sulfate fractionation according to the method of Nagatsu et al; from tissue
Briefly: AP-A (E.C. 3,4,11,7) inhibition assay. It is filed as biochemical. Particulars: L-α-glutamyl-β-naphthylamide substrate, pH 7.0, 37° C., 30 minutes; read-out: IC/50 AP--A: amount of the peptide to inhibit the intact activity of the target enzyme by 50% (converted). As to the method:
That is, 0.25 ml of 2 mM L-α-glutamyl-β-naphthylamide, 0.54 ml of 0.1 M Tris-HCl buffer, pH 7.0, 0.01 ml of 0.1 M calcium chloride and 0.1 ml of a test sample in water were mixed and kept at 37° C. for 3 minutes. The reaction was initiated by addition of 0.1 ml of an AP-A solution which was obtained by ammonium sulfate fractionation according to the method of Nagatsu et al. After incubation at 37° C. for 30 minutes, 1 ml of 1.0 M acetate buffer, pH 4.2, containing 1.0 mg/ml Garnet GBC (orthoaminoazotoluene diazonium salt) and 10% Tween 20 (Atlas Chemical Co., U.S.A.) was added to the reaction solution and then allowed to stand at room temperature for 15 minutes. The absorbance of the test solution (a) was measured at 530 nm. The control solution without the test sample was used as the blank test (absorbance (b)). The inhibition percentage on aminopeptidase A was calculated as [(b-a)/b]x100.

The target in test [1] is T2, leucine aminopeptidase (Leu-AP) (Sus scrofa, UniProt P28839).
T2 construct: purchased Boehringer-Mannheim Co
T2 sequence (P28839 1-519): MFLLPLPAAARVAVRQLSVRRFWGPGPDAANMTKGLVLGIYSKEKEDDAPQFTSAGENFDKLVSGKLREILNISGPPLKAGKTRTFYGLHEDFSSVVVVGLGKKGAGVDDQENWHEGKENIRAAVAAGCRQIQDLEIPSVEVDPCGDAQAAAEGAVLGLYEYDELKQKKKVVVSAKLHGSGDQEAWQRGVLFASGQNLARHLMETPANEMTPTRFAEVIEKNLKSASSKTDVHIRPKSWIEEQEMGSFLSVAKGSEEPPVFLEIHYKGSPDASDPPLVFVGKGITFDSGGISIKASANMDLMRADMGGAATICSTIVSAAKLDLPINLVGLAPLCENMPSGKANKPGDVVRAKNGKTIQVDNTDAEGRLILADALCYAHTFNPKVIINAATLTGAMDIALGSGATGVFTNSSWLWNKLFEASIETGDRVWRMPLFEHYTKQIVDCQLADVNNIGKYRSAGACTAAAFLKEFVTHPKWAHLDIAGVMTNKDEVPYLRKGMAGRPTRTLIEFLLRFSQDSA
Put plainly: Leu-AP (E.C. 3,4,11,1) inhibition assay. Particulars: Leu-AP (Boehringer-Mannheim), leucyl-β-naphthylamide substrate, pH 7.6, 37° C., 30 minutes; read-out: IC/50 Leu--AP: amount of the peptide to inhibit the intact activity of the target enzyme by 50% (converted). Type of test: biochemical. How it is done:
For enzyme assay, 0.25 ml of 2 mM […], 0.6 ml of 0.1 M Tris-HCl buffer, pH 7.6, and 0.1 ml of an aqueous solution containing a test compound were mixed and allowed to stand at 37° C. for 3 minutes. After a 20-fold dilution of Leu-AP (Boehringer-Mannheim Co.) in 0.1 M Tris-HCl buffer, pH 7.6 (0.05 ml) was added to the solution, the reaction was performed at 37° C. for 30 minutes. The inhibition percentage was measured as detailed in (1).

T1 sequence (Q07075 whole entry): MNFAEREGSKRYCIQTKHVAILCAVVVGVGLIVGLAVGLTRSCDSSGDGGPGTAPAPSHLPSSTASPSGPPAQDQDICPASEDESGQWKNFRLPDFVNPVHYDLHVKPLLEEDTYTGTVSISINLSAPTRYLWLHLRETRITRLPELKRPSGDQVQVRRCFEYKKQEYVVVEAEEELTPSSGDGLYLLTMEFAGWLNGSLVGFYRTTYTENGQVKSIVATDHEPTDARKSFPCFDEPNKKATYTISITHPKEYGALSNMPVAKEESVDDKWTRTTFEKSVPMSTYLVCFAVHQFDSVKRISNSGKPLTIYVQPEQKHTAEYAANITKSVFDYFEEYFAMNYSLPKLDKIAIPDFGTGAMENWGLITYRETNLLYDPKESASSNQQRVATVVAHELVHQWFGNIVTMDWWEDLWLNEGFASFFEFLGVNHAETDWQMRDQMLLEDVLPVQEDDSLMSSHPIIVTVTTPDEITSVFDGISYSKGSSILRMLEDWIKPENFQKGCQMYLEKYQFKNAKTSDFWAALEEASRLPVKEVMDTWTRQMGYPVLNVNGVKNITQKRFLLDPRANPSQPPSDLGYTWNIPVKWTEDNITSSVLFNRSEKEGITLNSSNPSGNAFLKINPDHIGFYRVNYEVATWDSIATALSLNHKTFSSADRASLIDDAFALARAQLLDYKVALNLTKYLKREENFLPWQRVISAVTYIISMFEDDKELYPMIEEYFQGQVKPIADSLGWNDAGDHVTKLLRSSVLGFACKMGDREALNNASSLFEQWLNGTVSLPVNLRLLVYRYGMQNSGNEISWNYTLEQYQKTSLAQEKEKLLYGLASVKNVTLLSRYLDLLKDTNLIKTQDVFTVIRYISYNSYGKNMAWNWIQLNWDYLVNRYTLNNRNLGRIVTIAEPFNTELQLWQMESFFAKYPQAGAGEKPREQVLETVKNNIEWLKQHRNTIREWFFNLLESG

As to `CC(C)C[C@@H](N)[C@H](O)C(=O)N[C@H](C(=O)N[C@H](C(=O)N[C@@H](CCCNC(=N)N)C(=O)O)C(C)C)C(C)C` [X--Val--Val-- Arg, (2S,3R)-AHMHA-Val-Val-Arg], the IC50 was 26.2 µM at aminopeptidase A (AP-A) and 38.8 µM in test [1].

Consider `CC(C)C[C@@H](N)[C@H](O)C(=O)N[C@@H](CCCCN)C(=O)N[C@H](C(=O)N[C@@H](CC(=O)O)C(=O)O)C(C)C` [X--Lys--Val--Asp, (2S,3R)-AHMHA-Lys-Val-Asp], for which the IC50 at aminopeptidase A (AP-A) was 2.98 µM; in test [1], 218 µM.

`CC(C)C[C@@H](N)[C@H](O)C(=O)N[C@H](C(=O)N[C@H](C(=O)N[C@H](C(=O)N[C@@H](CC(=O)O)C(=O)O)C(C)C)C(C)C)C(C)C` [X--Val--Val--Val--Asp] (X1-VVVD-OH): the IC50 is 31.4 µM on aminopeptidase A (AP-A) and 7.32 µM in test [1].

As to `CC(C)C[C@@H](N)[C@H](O)C(=O)N[C@H](C(=O)N[C@@H](CCCCN)C(=O)N[C@@H](CC(=O)O)C(=O)O)C(C)C` [X--Val--Lys--Asp, (2S,3R)-AHMHA-Val-Lys-Asp], the IC50 is 19.9 µM at aminopeptidase A (AP-A) and 6.95 µM in test [1].

For `CC(C)C[C@@H](N)[C@H](O)C(=O)N[C@H](C(=O)N[C@H](C(=O)N[C@H](C(=O)O)C(C)C)C(C)C)C(C)C` [X--Val--Val--Val, (2S,3R)-AHMHA-Val-Val-Val], the IC50 on aminopeptidase A (AP-A) is 9.38 µM; in test [1] it was 3.92 µM.

`CC(C)C[C@@H](N)[C@H](O)C(=O)N[C@H](C(=O)N[C@H](C(=O)N1CCC[C@H]1C(=O)O)C(C)C)C(C)C` [X--Val--Val--Pro, (2S,3R)-AHMHA-Val-Val-Pro]: the IC50 on aminopeptidase A (AP-A) was 76.7 µM; in test [1] it was 5.91 µM.

`CC(C)C[C@@H](N)[C@H](O)C(=O)N[C@H](C(=O)N[C@@H](CC(=O)O)C(=O)O)C(C)C` [X--Val--Asp]: the results for the IC50 (at aminopeptidase A (AP-A); in test [1]) were 32 µM and 0.799 µM, respectively.

In the case of `CC(C)C[C@@H](N)[C@H](O)C(=O)N[C@@H](CCCCN)C(=O)N[C@H](C(=O)N[C@H](C(=O)O)C(C)C)C(C)C` [X--Lys--Val--Val, (2S,3R)-AHMHA-Lys-Val-Val], the values for the IC50 (at aminopeptidase A (AP-A); in test [1]) were 3.9 µM and 369 µM, respectively.

Regarding `CC(C)C[C@H](NC(=O)[C@@H](O)[C@H](N)CC(C)C)C(=O)N[C@H](C(=O)N[C@@H](CC(=O)O)C(=O)O)C(C)C` [X--Leu--Val--Asp, (2S,3R)-AHMHA-Leu-Val-Asp], the results for the IC50 (on aminopeptidase A (AP-A); in test [1]) were 10.2 µM and 0.614 µM, respectively.

`CC(C)C[C@H](NC(=O)[C@@H](NC(=O)[C@@H](O)[C@H](N)CC(C)C)C(C)C)C(=O)N[C@@H](CC(=O)O)C(=O)O` [X--Val--Leu--Asp, (2S,3R)-AHMHA-Val-Leu-Asp]: the IC50 was 0.614 µM at aminopeptidase A (AP-A) and 1.43 µM in test [1].

For the compound `CC(C)C[C@@H](N)[C@H](O)C(=O)N[C@H](C(=O)N[C@H](C(=O)N[C@@H](CC(=O)O)C(=O)O)C(C)C)[C@@H](C)O` [X--Thr--Val--Asp, (2S,3R)-AHMHA-Thr-Val-Asp], the IC50 on aminopeptidase A (AP-A) was 0.315 µM; in test [1], 5.25 µM.

For the compound `CC(C)C[C@@H](N)[C@H](O)C(=O)N[C@H](C(=O)N[C@H](C(=O)N[C@@H](Cc1ccccc1)C(=O)O)[C@@H](C)O)C(C)C` [X--Val--Thr--Phe, (2S,3R)-AHMHA-Val-Thr-Phe], the IC50 on aminopeptidase A (AP-A) is 1.18 µM; in test [1], 0.727 µM.

`CC(C)C[C@@H](N)[C@H](O)C(=O)N[C@H](C(=O)N[C@H](C(=O)N[C@@H](CCC(=O)O)C(=O)O)C(C)C)C(C)C` [X--Val--Val--Glu, reference compound]: the IC50 on aminopeptidase A (AP-A) was 4.09 µM; in test [1] it was 4.5 µM.

For `CC(C)C[C@@H](N)[C@H](O)C(=O)N[C@H](C(=O)O)C(C)C` [X--Val], the results for the IC50 (on aminopeptidase A (AP-A); in test [1]) were 864 µM and 1.92 µM, respectively.

For the compound `CC(C)C[C@@H](N)[C@H](O)C(=O)N[C@@H](CC(=O)O)C(=O)O` [X--Asp], the IC50 was more than 905 µM on aminopeptidase A (AP-A) and 105 µM in test [1].

On to `CC(C)C[C@@H](N)[C@H](O)C(=O)N[C@@H](C)C(=O)N[C@@H](C)C(=O)N[C@@H](CC(=O)O)C(=O)O` [X--Ala--Ala--Asp], for which the IC50 (on aminopeptidase A (AP-A); in test [1]) was more than 597 µM throughout.

Take `CC(C)C[C@@H](N)[C@H](O)C(=O)N[C@H](C(=O)N[C@H](C(=O)N[C@@H](CCCCN)C(=O)O)C(C)C)C(C)C` [X--Val--Val--Lys, (2S,3R)-AHMHA-Val-Val-Lys]: the IC50 on aminopeptidase A (AP-A) was 43.1 µM; in test [1], 65.6 µM.

On to `CC(C)C[C@@H](N)[C@H](O)C(=O)N[C@H](C(=O)N[C@H](C(=O)N[C@H](C(=O)O)[C@@H](C)O)C(C)C)C(C)C` [X--Val--Val--Thr, (2S,3R)-AHMHA-Val-Val-Thr], for which the IC50 was 5.86 µM on aminopeptidase A (AP-A) and 7.6 µM in test [1].

On to `CC(C)C[C@@H](N)[C@H](O)C(=O)N[C@H](C(=O)N[C@H](C(=O)N[C@@H](CC(=O)O)C(=O)O)[C@@H](C)O)C(C)C` [X--Val--Thr--Asp, (2S,3R)-AHMHA-Val-Thr-Asp], for which the IC50 (at aminopeptidase A (AP-A); in test [1]) was 2.1 µM each time.

For the compound `CC(C)C[C@@H](N)[C@H](O)C(=O)N1CCC[C@H]1C(=O)O` [X--Pro], the IC50 was 774 µM on aminopeptidase A (AP-A) and 83.2 µM in test [1].

Turning to `CC(C)C[C@@H](N)[C@H](O)C(=O)N[C@H](C(=O)N[C@H](C(=O)N[C@@H](Cc1ccccc1)C(=O)O)C(C)C)C(C)C` [X--Val--Val--Phe, (2S,3R)-AHMHA-Val-Val-Phe], the IC50 at aminopeptidase A (AP-A) was 14.2 µM; in test [1] it was 4.34 µM.

Consider `CC(C)C[C@@H](N)[C@H](O)C(=O)N[C@H](C(=O)N[C@H](C(=O)O)C(C)C)C(C)C` [X--Val--Val], for which the IC50 at aminopeptidase A (AP-A) is 10 µM; in test [1], 2.5 µM.
